From patent US11278541B2, “Low dose combination therapy for treatment of myeloproliferative neoplasms” (Incyte Corporation, priority 2017, dated 2022) come the findings set out here.

Series [1] can be described thus: Free fraction in media of the Example 3 assay. The format is in vitro ADME. The note with it: cell assay media (Example 3 assay); media of Example 3 assay. An excerpt: The assay in Example 3 involved plating cells from blood in media. […] The serum free fraction and media free fractions of 7% and 58% can be used to convert the results in Example 3 to an human dose assuming a linear dose-response curve.

Another series concerns the target Pim3 (Homo sapiens, UniProt Q86V86). The experiment in a line: Pim-3 kinase assay (Assay B). The format is biochemical. The note with it: 1 mM ATP.
In another series the target is T1, Pim2 (Homo sapiens, UniProt Q9P1W9).
T1 construct: purchased Invitrogen PV3649
T1 sequence (Q9P1W9 whole entry): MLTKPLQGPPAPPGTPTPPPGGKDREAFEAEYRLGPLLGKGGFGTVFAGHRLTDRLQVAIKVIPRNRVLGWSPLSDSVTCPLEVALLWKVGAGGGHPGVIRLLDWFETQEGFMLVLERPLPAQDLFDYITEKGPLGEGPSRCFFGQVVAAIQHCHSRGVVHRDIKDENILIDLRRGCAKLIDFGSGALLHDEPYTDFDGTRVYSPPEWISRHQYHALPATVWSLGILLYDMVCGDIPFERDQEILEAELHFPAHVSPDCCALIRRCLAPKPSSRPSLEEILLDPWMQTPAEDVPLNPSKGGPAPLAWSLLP
As to the kind of experiment: Pim-2 kinase assay (Assay B). The format is biochemical. To be noted: 1 mM ATP. The procedure: Pim-2 kinase assay—20 μL reactions were run in white 384 well polystyrene plates dotted with 0.8 μL compound/DMSO in the assay buffer (50 mM Tris, pH 7.5, 0.01% Tween-20, 5 mM MgCl2, 0.01% BSA, 5 mM DTT), containing 0.05 μM Fluorescein-labeled CREBtide peptide substrate (Invitrogen PV3508), 1 mM ATP, and 1 nM enzyme (Invitrogen PV3649) for 2 h at 25° C. Reactions were stopped by addition of 10 μL TR-FRET Dilution Buffer (Invitrogen PV3574) with 30 mM EDTA and 1.5 nM LanthaScreen Tb-CREB pSer133 antibody (Invitrogen PV3566). After 30 min. incubation at room temperature, plates were read on a PHERAstar FS plate reader (BMG Labtech).

A short description of series [2]: Conversion of Example 3 cell activity to protein-binding adjusted activity and human dose.
In series [3] the test system is pBAD in KMS12BM cell line. The experiment in a line: pBAD inhibition by patient plasma samples incubated ex vivo with KMS12BM cell line. The format is in vivo, human. To be noted: KMS-12-BM, 192 h; 80 mg BID, cycle 1, day 8, time course. The procedure: Plasma samples from patients were incubated ex vivo with the KMS12BM cell line for 2.5 hours at 37° C. Whole cell lysates were prepared from the cells, and levels of pBAD were determined using an ELISA.

In the next series the target is T2, Pim1 (Homo sapiens, UniProt P11309).
T2 construct: purchased Invitrogen PV3503
T2 sequence (P11309 whole entry): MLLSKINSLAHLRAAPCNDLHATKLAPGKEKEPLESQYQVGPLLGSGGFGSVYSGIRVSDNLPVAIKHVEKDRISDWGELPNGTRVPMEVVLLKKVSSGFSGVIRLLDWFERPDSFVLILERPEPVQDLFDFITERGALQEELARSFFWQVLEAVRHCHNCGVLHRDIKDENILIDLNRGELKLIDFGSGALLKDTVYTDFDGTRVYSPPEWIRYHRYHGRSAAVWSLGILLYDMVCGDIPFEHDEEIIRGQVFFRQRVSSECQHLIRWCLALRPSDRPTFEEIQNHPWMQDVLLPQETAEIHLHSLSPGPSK
The experiment in a line: Pim-1 kinase assay (Assay B). The format is biochemical. The note with it: 1 mM ATP. The procedure: Pim-1 and Pim-3 kinase assays—20 μL reactions were run in white 384 well polystyrene plates dotted with 0.8 μL compound/DMSO in the assay buffer (50 mM Tris, pH 7.5, 0.01% Tween-20, 5 mM MgCl2, 0.01% BSA, 5 mM DTT), containing 0.05 μM Biotin-labeled BAD peptide substrate (AnaSpec 62269), 1 mM ATP, and 2.5 pM (Pim-1, Invitrogen PV3503) or 1.25 pM (Pim-3, Millipore 14-738) enzyme for 1 h at 25° C. Reactions were stopped by addition of 10 μL STOP Buffer (150 mM Tris, pH=7.5, 150 mM NaCl, 75 mM EDTA, 0.01% Tween-20, 0.3% BSA) supplemented with Phospho-Bad (Ser112) Antibody (Cell Signaling 9291) diluted 666-fold, and Streptavidin donor beads (PerkinElmer 6760002) along with Protein-A acceptor beads (PerkinElmer 6760137) at 15 μg/mL each. Supplementation of the STOP buffer with beads and stopping the reactions were done under reduced light. Prior to the stopping reactions STOP buffer with beads was pre-incubated for 1 h in the dark at room temperature. After stopping the reactions, plates were incubated for 1 h in the dark at room temperature before reading on a PHERAstar FS plate reader (BMG Labtech) under reduced light.

For series [4], the system named is Peripheral blood mononuclear cells from an MPN patient (PV, JAK2-V617F+). The experiment in a line: Epo-independent erythroid colony formation. The format is cell-based, human. To be noted: Compound 1 alone, colonies scored after 12 days. From the text: Epo-independent erythroid colonies were scored after 12 days. […] The lower measured % growth indicates synergy.

Series [5] in a line: Protein binding in human serum (equilibrium dialysis). The format is in vitro ADME. To be noted: 0.3 μM-10 μM. The procedure: For human, the average in vitro serum fraction unbound (fu) of 7.0%. For the protein binding determination, the Multi-Equilibrium Dialyzer System™ and diachema membranes from Harvard Apparatus (Holliston, Mass.) were utilized. Samples were protein precipitated, matrix matched and then centrifuged. The supernatant was transferred and analyzed using LC-MS/MS. The percent fraction unbound for in vitro samples was calculated using final peak area ratios in post-dialysis buffer divided by final peak area ratios in post-dialysis serum, with correction applied for volume shift.
On the technique in general: Equilibrium dialysis compares concentrations on both sides of a semipermeable membrane.

Where a name gives a salt, the structure may show the parent alone.

What is called fraction unbound is the share of the substance not bound to proteins or other matrix. By IC50 is commonly meant the point on the concentration scale where inhibition reaches its midpoint. Read a high IC50 as weaker potency. Broadly, the inhibition is the change of the read-out against control, counted positive when it falls. A lower inhibition goes with little suppression. As for `C[C@H]1CN(c2c(NC(=O)c3ccc(F)c(-c4c(F)cccc4F)n3)cnc3c2CC[C@H]3O)C[C@@H](N)[C@@H]1O` [Compound 1, N-{(7R)-4-[(3R,4R,5S)-3-Amino-4-hydroxy-5-methylpiperidin-1-yl]-7-hydroxy-6,7-dihydro-5H-cyclopenta[b]pyridin-3-yl}-6-(2,6-difluorophenyl)-5-fluoropyridine-2-carboxamide], the fraction unbound in series [1] stood at 0.58; in series [5] (read-out: average in vitro serum fraction unbound (fu)) it was 0.07. The IC50 at Pim3, against Pim2 and against Pim1 was not above 100 nM each time. Moreover, the “shift in activity (media to serum protein binding)” value in series [2] ((58%)/7%) is 8.3 fold. For the same molecule, the “inhibition level corresponding to protein-binding adjusted activity” value in series [2] (adjusted activity 8.3 nM) is reported as “IC5.7”; in series [2] (adjusted activity 41 nM), “IC23”. Moreover, the Protein-binding adjusted activity was found to be 8.3 nM in series [2] (cell activity Example 3: 1 nM), 41 nM in series [2] (cell activity Example 3: 5 nM) and 166 nM in series [2] (cell activity Example 3: 20 nM). The molecule also had an inhibition at 80 mg in series [3] of 76%. For the same molecule, in series [4], the “neoplastic erythroid colony formation of JAK2-V617F(+) MPN hematopoietic progenitors” value is “Inhibition”. Also, the protein binding entry in series [5] is “high protein binding”.

For the molecule `C[C@H]1CN(c2c(NC(=O)c3ccc(F)c(-c4c(F)cccc4F)n3)cnc3c2CC[C@H]3O)C[C@@H](N)[C@@H]1O` [dihydrochloric acid salt of Compound 1], the IC50 on Pim3, on Pim2 and at Pim1 was less than 35 nM in each case.

Regarding `C[C@H]1CN(c2c(NC(=O)c3ccc(F)c(-c4c(F)cccc4F)n3)cnc3c2CC[C@H]3O)C[C@@H](N)[C@@H]1O` [phosphoric acid salt of Compound 1], the IC50 against Pim3, against Pim2 and at Pim1 was less than 35 nM throughout.
